Experiments:
[1] = system: HIV-1 YU-2 strain; assay: HIV-1 replication measured by p24 production in infected PBMCs; format: cell-based; settings: Human immunodeficiency virus 1, PBMC; 5 μM ABX464; PBMCs from 6 donors infected with YU-2 strain; read-out: inhibition of viral replication (p24 production)
Protocol: Buffy coats from HIV-negative individuals were obtained from the local blood donation center in Centre de transfusion sanguine Montpellier. Human peripheral blood mononuclear cells (PBMCs) were isolated by Ficoll (Histopaque, Sigma) gradient centrifugation. CD4+ and CD8+ T cells were purified from PBMCs after Ficoll gradient centrifugation by Human CD4+ beads positive selection and CD8+ beads positive selection, respectively (Miltenyi). PBMCs, CD4+ and CD8+ T cells were grown at 37° C. and 5% CO2 to a density of 1.5×10^6 cells/ml in RPMI GlutaMAX medium (Life Technologies) supplemented with 10% fetal calf serum (FCS) (Thermo Fisher), 40 U/ml of IL2 (PeproTech) and 5 μg/mL of PHA (Roche) for 2 days. […]
PBMCs from 6 HIV-negative donors were infected with the YU-2 strain, followed by treatment with ABX464. […] To highlight potential new splicing events induced by ABX464, we used a custom bioinformatics pipeline with the main step involving the assembly of putative transcripts from targeted RNA sequencing reads to construct contigs (Illumina paired-end 2×75 bp) (FIGS. 6 A and B). […] The HIV profiling datasets used in our analysis yielded high sequence coverage (2 to 30 million reads for the 9 kb genome), allowing deep quantification of HIV splice variants.

[2] = system: CD4+ T cells; assay: RNAseq differential alternative splicing analysis (SUPPA) of cellular genes; format: cell-based, human; design: key to differential splicing Event type, gene ZNF177 / differential splicing Event type, gene FGF22 / differential splicing Event type, gene AL157955.2 / differential splicing Event type, gene TMEM147 / differential splicing Event type, gene ATIC / differential splicing Event type, gene CDRT15 / differential splicing Event type, gene WDR72 / differential splicing Event type, gene GNRHR2 / differential splicing Event type, gene ZNE584 / differential splicing Event type, gene LINC01869 / differential splicing Event type, gene LINC01119: Alternative 5′ splice site (A5); Alternative 3′ splice site (A3); Alt exons: Alternative first and last exons (Altexons); Retained intron (RI)
Protocol: Buffy coats from HIV-negative individuals were obtained from the local blood donation center in Centre de transfusion sanguine Montpellier. Human peripheral blood mononuclear cells (PBMCs) were isolated by Ficoll (Histopaque, Sigma) gradient centrifugation. CD4+ and CD8+ T cells were purified from PBMCs after Ficoll gradient centrifugation by Human CD4+ beads positive selection and CD8+ beads positive selection, respectively (Miltenyi). PBMCs, CD4+ and CD8+ T cells were grown at 37° C. and 5% CO2 to a density of 1.5×10^6 cells/ml in RPMI GlutaMAX medium (Life Technologies) supplemented with 10% fetal calf serum (FCS) (Thermo Fisher), 40 U/ml of IL2 (PeproTech) and 5 μg/mL of PHA (Roche) for 2 days. Three days later, cells were resuspended at 1.5×10^6 cells/ml in RPMI supplemented with 10% FCS and 40 U/ml IL2 and separated into two parts (infected and uninfected cells). Cells were infected with 80 ng of p24/106 cells of the YU-2 strain for 4 to 6 hours and then rinsed with PBS before medium renewal.
Both infected and uninfected cells were then centrifuged and resuspended to a density of 1.5×10^6 cells/ml in medium supplemented with diluted drug solubilized in DMSO (Sigma) to a final 0.05% DMSO concentration or antiretroviral compounds according to the manufacturer's instructions. Cells were treated for 6 days with a medium renewal at day 3. HIV p24 titration was performed by ELISA from cell culture supernatants with Innotest kit (Ingen) according to the manufacturer's instructions.
A full-detailed report describing the complete analysis was submitted to Gene Expression Omnibus (GEO, https://www.ncbi.nlm.nih.gov/geo/query/acc.cgi?acc=GSE116073). Total RNA extraction was performed according to the Qiagen miRNeasy □ kit. RNA concentrations were determined using Qubit[…] fluorometric quantification and purity by the RNA 6000 Bioanalyzer kit (Agilent). RNA-Seq libraries were constructed with the TruSeq stranded mRNA sample preparation (low-throughput protocol) kit from Illumina, according to the manufacturer's instructions. Aliquots of 1.2 μg of total RNA were used for the construction of the libraries. The final cDNA libraries were validated with a Fragment Analyzer (Advanced Analytical, Ankeny, Iowa) and quantified with a KAPA qPCR kit (Kapa Biosystems, Wilmington, Mass.). On the 8 sequencing lanes of a flow cell V4, the 32 libraries were pooled in equal proportions by sets of 4 libraries per lane, denatured with NaOH and diluted to […] before clustering. Cluster formation and primer hybridization and single-end read, 50-cycle sequencing were performed on the cBot and HiSeq 2500 (Illumina, San Diego, Calif.), respectively. Image analysis and base calling were performed using the HiSeq Control Software with the Real-Time Analysis component. Demultiplexing was performed using Illumina's sequencing analysis software. The quality of the data was assessed using FastQC from the Babraham Institute and the Illumina software SAV (Sequence Analysis Viewer). Potential contaminants were investigated with the FastQ Screen software from the Babraham Institute.
To investigate splicing activity we used SUPPA v2.0.0, a tool developed in Python 3.4 and especially designed for this approach. To study splicing across multiple conditions, we performed three modular operations that were run separately. The first step was to generate events from the annotation file commonly named the GTF file (general […]). The second step was to quantify event inclusion levels (PSIs) from our samples. Finally, differential splicing across multiple conditions was calculated for all replicates.
To generate the different alternative splicing events from an input annotation file (GTF format), the method reads transcript and gene information solely from the “exon” lines in the GTF. It then generates the events and outputs an ‘ioe’ file, which contains the relationship between each event and the transcripts that share this particular event. […]

[3] = ABX464_NI_VS_DMSO_NI, uninfected CD4 T cells

## FC(F)(F)Oc1ccc(Nc2ccc3cccc(Cl)c3n2)cc1 [ABX464, 8-chloro-N-(4-(trifluoromethoxy)phenyl)quinolin-2-amine]
[1]
  inhibition at 5 µM: > 70%
[2]; [3]
  differential splicing Event type, gene AL157955.2: A3
  differential splicing Event type, gene ATIC: A5
  differential splicing Event type, gene CDRT15: A5
  differential splicing Event type, gene FGF22: A3
  differential splicing Event type, gene GNRHR2: RI
  differential splicing Event type, gene LINC01119: A3
  differential splicing Event type, gene LINC01869: A3
  differential splicing Event type, gene TMEM147: RI
  differential splicing Event type, gene WDR72: A5
  differential splicing Event type, gene ZNE584: A3
  differential splicing Event type, gene ZNF177: A3
[2]; infected and uninfected CD4+ T cells treated with ABX464, ΔPSI >0.4, p <0.05
  number of common and differential splicing events: < 10 events

— patent US20220145406A1, “BIOMARKERS, AND USES IN TREATMENT OF VIRAL INFECTIONS, INFLAMMATIONS, OR CANCER” (ABIVAX, priority 2018, published 2022)
